Several values for one entry are separate records, joined by “and”; a condition that tells them apart may be missing. Identical values can stand only once. Like-named read-outs stand apart in the source and are kept apart here.
How the values were obtained:
A549 lung cancer cells = assay: Anticancer activity by MTT assay; type: cell-based; details: mean ± SE of six replications, read-out: IC50 (μM), anti-cancer activity against the A549 cell line
Experimental: The assay was performed as previously described. Lung cancer cells (A549) were seeded into a 96-well plate at a density of 1 × 10^4 cells/well, and cultured for 24 h before the compounds were added. The cells were incubated in a humidified atmosphere of 5% CO2 at 37 °C for 72 h. After treatment, 20 μL MTT solution (0.5 mg/mL) was added to each well, and the plates were incubated for 3 h. The medium was removed, and the formazan was dissolved in 200 μL of DMSO. After shaking the plate for 10 min, cell viability was assessed by measuring the absorbance at 490 nm using a microplate reader (Corona, Hitachinaka-ku, Ibaraki, Japan). DMSO was used as a blank. The corrected absorbance of sample was divided by the corrected absorbance of the control, and then multiplied by 100% to give the percentage cell viability.

human PAK1 = human PAK1 (Homo sapiens, UniProt Q13153); assay: In vitro PAK1 inhibition, ADP-Glo kinase assay; type: biochemical; details: mean ± SE of six replications, read-out: IC50 (μM), in vitro PAK1 inhibitory activity
Sequence of human PAK1 (Q13153 whole entry): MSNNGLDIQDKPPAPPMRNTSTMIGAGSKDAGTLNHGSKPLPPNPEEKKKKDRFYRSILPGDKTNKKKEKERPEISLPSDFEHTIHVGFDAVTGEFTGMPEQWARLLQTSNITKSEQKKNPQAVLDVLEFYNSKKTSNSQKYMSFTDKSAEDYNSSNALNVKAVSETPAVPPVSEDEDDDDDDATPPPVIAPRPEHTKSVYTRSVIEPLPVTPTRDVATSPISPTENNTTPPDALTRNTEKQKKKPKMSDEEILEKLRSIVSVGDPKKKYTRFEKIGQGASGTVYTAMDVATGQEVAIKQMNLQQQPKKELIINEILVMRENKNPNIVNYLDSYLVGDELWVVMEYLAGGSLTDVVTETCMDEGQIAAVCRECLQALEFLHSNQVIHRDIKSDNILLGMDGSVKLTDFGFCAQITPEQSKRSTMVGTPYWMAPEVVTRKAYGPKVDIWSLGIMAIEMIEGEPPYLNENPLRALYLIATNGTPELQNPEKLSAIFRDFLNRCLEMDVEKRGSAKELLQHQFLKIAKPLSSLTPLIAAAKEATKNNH
Experimental: PAK1 kinase activity was measured using the ADP-Glo™ kinase assay kit (Promega, Madison, WI, USA) according to manufacturer’s instructions. Briefly, human PAK1 (25 ng/reaction) was incubated with test compounds (5 μL) for 10 min. […] The reaction was terminated by adding 25 μL ADP-Glo™ reagent, followed by an incubation time of 40 min. The kinase detection reagent (50 μL) was added to the reaction mixture, and after 30 min of incubation, the luminescence was recorded by MTP-880Lab microplate reader (Corona, Ibaraki, Japan) with an integration time of 0.5 s per well. The percentage inhibition was calculated relative to the control kinase activity without any inhibitor.

[1] = system: human follicle dermal papilla cells (HFDPC); assay: Human follicle dermal papilla cell (HFDPC) proliferation, MTT assay; type: cell-based; details: for viability at 10 µM / viability at 50 µM / viability at 100 µM: Homo sapiens, 96 h; for viability at 10 µM / viability at 50 µM / viability at 100 µM / proliferation of HFDPC / Cell viability (%): four days incubation
Experimental: Human follicle dermal papilla cell (HFDPC) (TOYOBO, Tokyo, Japan) proliferation was assayed as described by Nguyen et al.. Cells were cultured in growth medium containing 50 mL papilla cell growth medium (PCGM), 0.5 mL FCS, 0.5 mL BPE, 0.25 mL Cyp, and 0.25 mL ITT (51.5 mL total volume). Cell viability was evaluated using the thiazolyl blue tetrazolium bromide (MTT) assay. Cells were collected and diluted in medium containing D-MEM and 10% FBS at a cell density of 1 × 10^4 cells/mL. Then, cell suspension (200 μL) was transferred into a collagen-coated 96-well plate at a density of 2000 cells/well. After incubation for three days, 200 μL of the isolated compounds in DMEM was added. After four days of incubation, 100 μL of MTT solution in D-MEM (0.4 mg/mL) was added, and the mixture was incubated for 2 h. The untransformed MTT was removed, and 100 μL of 2-propanol was added to each well to dissolve the formazan crystals. The absorbance was read at 570 nm and 650 nm using a microplate reader. The cell viability was calculated from the readings, and represented as a percentage of the control value (cells treated with D-MEM only).

[2] = 10 μM, percentage of control value (cells treated with D-MEM only)
[3] = 100 μM, percentage of control value

Row | IC50 (A549 lung cancer cells; 72 h) [µM] | IC50 (A549 lung cancer cells; Homo sapiens, A549, 72 h) [µM] | SMILES | IC50 (human PAK1) | viability at 10 µM [1, 2] [%] | viability at 50 µM ([1]; percentage of control value) [%] | viability at 100 µM [1, 3] [%] | proliferation of HFDPC / Cell viability (%) [1, 2] | proliferation of HFDPC / Cell viability (%) [1, 3] [%] | effect on hair cell proliferation ([1]; at around 50 μM or higher) | IC50 (A549 lung cancer cells; Homo sapiens, 72 h) [µM]
1 | 67.1 ± 6 | 67 | C=C1CCC2C(C)(C)CCCC2(C)C1C/C=C(/C=O)CC=O (centres unmarked) [Labdadiene, 8(17),12-Labdadiene-15,16-dial] | 52 µM and 52.1 µM | 133 | 197 | 227 | about 132% | ~226 |  | 
2 |  | 81.4 ± 1.9 | O=C(O)C1OC(Oc2c(-c3ccc(O)cc3)oc3cc(O)cc(O)c3c2=O)C(O)C(O)C1O [KOG, kaempferol-3-O-β-D-glucuronide] | 39 µM and 39.3 µM | 118 | 158 | 181 |  | ~180 |  | 

More lines, now with the values behind:

Row | SMILES | IC50 (A549 lung cancer cells; 72 h) [µM] | IC50 (A549 lung cancer cells; Homo sapiens, A549, 72 h) [µM] | IC50 (human PAK1) | viability at 10 µM [1, 2] [%] | viability at 50 µM ([1]; percentage of control value) [%] | viability at 100 µM [1, 3] [%] | proliferation of HFDPC / Cell viability (%) [1, 2] | proliferation of HFDPC / Cell viability (%) [1, 3] [%] | effect on hair cell proliferation ([1]; at around 50 μM or higher) | IC50 (A549 lung cancer cells; Homo sapiens, 72 h) [µM]
3 | COc1cc(/C=C/C(=O)CC(=O)/C=C/c2ccc(O)c(OC)c2)ccc1O [Curcumin, reference compound] | 30.3 ± 2.9 | 30 |  |  |  |  |  |  |  | 
4 | CO/C=C/C=C/C=C/C1C=CC(/C=C/C=C/C=C/OC)O1 (centres unmarked) [MTD] |  | 98.9 ± 9.3 | 59 µM and 58.6 µM | 165 | 190 | 113 |  |  |  | 
5 | Nc1cc(N2CCCCC2)nc(N)[n+]1[O-] [Minoxidil, reference compound] |  |  |  | 116 |  |  | 119% |  |  | 
6 | C=C1CC2CC(C)(C)C(C)(C)CN2CC1CCCCC/C=C/C (centres unmarked) [TMOQ, (E)-2,2,3,3-tetramethyl-8-methylene-7-(oct-6-en-1-yl)octahydro-1H-quinolizine] |  |  | 49 µM and ~50 µM and 49.3 µM | 139 | 104 | 68.5 |  |  | did not significantly affect the hair cell proliferation | 90.8 ± 1.6
